Measured values reported in US20250215015A1 (THE REGENTS OF THE UNIVERSITY OF CALIFORNIA, priority 2022, published 2025).
Read-outs that look alike come from different tables or passages of the source.

What was measured:
U87 cells = test: FACS analysis for DNA content; type: cell-based; conditions: treated cells
U87 flank tumors = test: U87 flank tumor growth in mice; type: in vivo, nu/nu mice
[1] = Toxicity in mice: body weight and liver enzymes; type: in vivo; conditions: mice bearing U87 GBM flank tumors
Source text: Weight declined with STS but not PBS or LSTS. Bottom panel is bar graph depicting liver enzymes ALT/AST before and after treatment. For free STS the post treatment levels were flagged as abnormal (stars). ALT/AST enzyme levels were normal with empty liposomes (control) and LSTS. Reference levels shown by dashed lines.

phosphorylation of Akt = test: Western blot for Akt, P-Akt, cleaved PARP; type: cell-based; conditions: U87 cells
Source text: FIG. 5A: Western blot analysis for Akt, P-Akt, cleaved PARP. […] Representative blot from two independent experiments is shown.

U87 GBM = test: GBM agent potency in U87 cells; type: cell-based
Source text: UCN-01 potency. The potency of UCN-01 markedly exceeds that of standard GBM agents in GBM U87 cells (Table 1), and it engages a unique pattern of signaling pathways to drive apoptosis. The ability of UCN-01 at noncytotoxic doses to abrogate G2 arrest is evident in p53 dysregulated cells. p53 is mutated in about 35% of primary GBM and 65% of secondary GBM. p53 pathway dysregulation occurs in 86% of GBM.

[2] = In vitro unbound fraction of UCN-01 in dog plasma; type: in vitro ADME; design: dose or concentration left out as unconfirmed
Source text: (§1) UCN-01 pharmacokinetics and nanoliposomes. Free UCN-01 is instantly bound by human alpha-1 acid glycoprotein (AAG) plasma protein with extremely high affinity and remains in circulation for remarkably extended periods of time. […] Unfortunately this greatly diminishes the availability of free (active) compound so that the in vivo effectiveness of UCN-01 is compromised even when it enters tumor tissue when bound to AAG the UCN-01 molecule is not bioavailable. Increasing the UCN-01 dose to sufficiently saturate AAG in the plasma elevates the risk of toxicity.

U87 glioblastoma cells = test: Potentiation of temozolomide; type: cell-based
[3] = tested on: radioresistant U87 GBM cells; test: GBM radiosensitization in culture; type: cell-based; conditions: mildly cytotoxic nM levels, clinically relevant radiation doses
Procedure: Bar graph of radiation dose and UCN-01 dose (nM) vs percent viable U87 GBM cells. Red columns for 0 Gy and purple for 5 Gy—a clinically relevant dose.
GBM radiosensitization with low doses of the staralog UCN-01. […] As a precursor to studies with a range of staralogs, extensive model investigations with the class parent staralog model system, STS were performed.

[4] = In vitro unbound fraction of UCN-01 in mouse plasma; type: in vitro ADME; design: dose or concentration left out as unconfirmed
Source text: as §1

[5] = In vitro unbound fraction of UCN-01 in rat plasma; type: in vitro ADME; design: dose or concentration left out as unconfirmed
Source text: as §1

[6] = In vitro unbound fraction of UCN-01 in human plasma; type: in vitro ADME; design: dose or concentration left out as unconfirmed
Source text: as §1

[7] = tested on: GBM patient cancer stem cell derived GBM tumorsphere lines; test: GBM cytotoxicity, MTT assay in tumorsphere lines; type: cell-based; conditions: 8 GBM tumorsphere lines, almost all cell lines
Procedure: GBM cytotoxicity with UCN-01. 8 different GBM patient cancer stem cell derived GBM tumorsphere lines were incubated with a range of UCN-01 doses. The percent viable cells were determined with the MTT assay.

What does the source list for CN[C@@H]1C[C@H]2O[C@@](C)([C@@H]1OC)n1c3ccccc3c3c4c(c5c6ccccc6n2c5c31)C(=O)NC4 [STS, Staurosporine]?
DNA content (FACS) (U87 cells): G0 shift consistent with apoptosis; in vivo GBM proliferation (Ki-67) (U87 flank tumors): did not; body weight [1]: reduction in body weight; PARP cleavage (phosphorylation of Akt): stimulated caspase 3 dependent PARP cleavage; phospho-Akt (phosphorylation of Akt): suppression of phospho-Akt

Which IC50 (U87 GBM; Homo sapiens, U-87 MG) does the source give for Cn1nnc2c(C(N)=O)ncn2c1=O [Temozolomide] here?
The IC50 was 50000 nM.

With O=c1[nH]cc(F)c(=O)[nH]1 [Compound 5-FU, 5-FU] as the molecule, how does the IC50 (U87 GBM) read?
Its IC50 is 2500 nM.

With O=NN(CCCl)C(=O)NCCCl [BCNU] as the molecule, how does the IC50 (U87 GBM) read?
The IC50 was 60000 nM.

With CN[C@@H]1C[C@H]2O[C@@](C)([C@@H]1OC)n1c3ccccc3c3c4c(c5c6ccccc6n2c5c31)C(=O)N[C@H]4O [UCN-01, 7-hydroxystaurosporine] as the molecule, how does the Unbound fraction % [2] read?
Its Unbound fraction % is 0.49%.

And the “potentiation of temozolomide (TMZ)” value (U87 glioblastoma cells)?
The value was “potentiated temozolomide (TMZ)”.

And the IC50 (U87 GBM)?
Its IC50 is 50 nM.

And the sensitization to radiation [3]?
Its sensitization to radiation is “able to sensitize”.

What about the Unbound fraction % [4] of the same molecule?
The Unbound fraction % was 1.14%.

What about the Unbound fraction % [5] of the same molecule?
Its Unbound fraction % is 1.75%.

What about the Unbound fraction % [6] of the same molecule?
The Unbound fraction % was less than 0.02%.

And the IC50 values [7]?
Its IC50 values is “low nanomolar (nM) range”.

For COc1cccc2c1C(=O)c1c(O)c3c(c(O)c1C2=O)C[C@@](O)(C(=O)CO)C[C@@H]3O[C@H]1C[C@H](N)[C@H](O)[C@H](C)O1 [Doxorubicin], which IC50 (U87 GBM; Homo sapiens, U-87 MG) is on record?
Its IC50 is 1000 nM.
